Common to all, as to type: cell-based, human
For experiment [1], the system named is AR-V7. Briefly: western blot of AR and AR-V7 expression in 22Rv1 cells. The following applies: 22Rv1, 72 hours; abiraterone 7.5 μM, enzalutamide 7.5 μM, SB202190 (504). The procedure:
Western blot analysis was performed, detecting the wild-type form of AR and the AR-V7 form as well (FIG. 7). In this way the inventors tested the involvement of the p38 inhibitor in abiraterone and enzalutamide resistance, the AR-V7.

The subject of experiment [2] is AR-V7. Briefly: CELIGO microscope observation of AR-V7 expression. The following applies: 22Rv1 cells, 72 hours; enzalutamide 30.0 μM, SB202190 5.0 μM, LY2228820 2.5 μM; control 30.0%. Here is the method: The expression of AR-V7 was observed by the CELIGO microscope in 22Rv1 cells after 72 hours of culture.
The subject of the next experiment is p38 (MAPK14). Briefly: p38 activation, western blot with anti-phospho-p38 antibody. The following applies: 22Rv1 and LNCaP prostate cancer cells, 24 hours. The procedure: FIG. 1: Abiraterone induces p38 activation. Prostate cancer cells LNCaP (Androgen Receptor expressing cells) were treated with abiraterone (30 μM). Prostate cancer cells 22Rv1 (Androgen Receptor and AR-V7 expressing cells) were treated with 0.1, 1.0, 10.0 and 30.0 μM abiraterone during 24 hours. Protein were extracted and subjected to western blot analysis using anti-phospho-p38, anti-p38 and anti-tubulin antibodies. (Example 1)
[…]. A: LNCaP human prostate cells (Androgen Receptor expressing cells) were treated by enzalutamide (35.0 μM) during 24 h00. Phosphorylation p38 was assessed. Tubuline and non-phosphorylated proteins were stained as a loading control. B: same experiment with the Androgen Receptor and AR-V7 expressing 22Rv1 human prostate cancer cells (Example 1).
A general note: A western blot detects proteins with antibodies after separation by electrophoresis.

Turning to `Oc1ccc(-c2nc(-c3ccncc3)c(-c3ccc(F)cc3)[nH]2)cc1` [SB202190], the AR-V7 expression result with AR-V7 [1] is recorded as “inhibits AR-V7 expression”. The “% of cells with ARv7” value with AR-V7 [2] is listed as 28.0%.

Regarding `CNC(=O)c1ccc(N2C(=S)N(c3ccc(C#N)c(C(F)(F)F)c3)C(=O)C2(C)C)cc1F` [enzalutamide], in the experiment on p38 (MAPK14), the “activation of MAPK p38 (phosphorylated form of p38)” value is “activates the MAPK p38”.

Consider `CC(C)(C)Cn1c(N)nc2ccc(-c3[nH]c(C(C)(C)C)nc3-c3ccc(F)cc3)nc21` [LY2228820], for which, in the experiment with AR-V7 [2], the “% of cells with ARv7” value worked out at 34.0%.
